{
  "source": "PubChem BioAssay AID2060488",
  "about": "(Molecular Pharmacology Branch, DTP, NCI, 2025);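 further: spheroids exposed to the agents for seven days before readout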;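 on viability, T/C: percent viability relative to DMSO vehicle control wells taken as 100%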",
  "test_system": "966289-007-R4-J1-PDC complex spheroid viability",
  "test": "Anticancer human tumor 966289-007-R4-J1-PDC patient-derived pancreatic adenocarcinoma cell line growth inhibition [GQUAD]",
  "conditions": "for IC50: curve of first compound; for viability, T/C: stronger effect = lower value",
  "procedure,_shortened": "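Viability of tumor cells grown as complex spheroids with endothelial and stromal cells, exposed to drug combinations. Top concentration at or near clinical Cmax (else 10 microM), diluted in half-log increments.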",
  "key": {"[1]": {"conditions": "second compound 0.0316 µM, first compound 0.0316 µM"}, "[2]": {"conditions": "second compound 0.0316 µM, first compound 0.1 µM"}, "[3]": {"conditions": "second compound 0.0316 µM, first compound 0.316 µM"}, "[4]": {"conditions": "second compound 0.0316 µM, first compound 1 µM"}, "[5]": {"conditions": "second compound 0.0316 µM, first compound 3.16 µM"}, "[6]": {"conditions": "second compound 0.0316 µM, first compound 10 µM"}, "[7]": {"conditions": "second compound 0.1 µM, first compound 0.0316 µM"}, "[8]": {"conditions": "second compound 0.1 µM, first compound 0.1 µM"}, "[9]": {"conditions": "second compound 0.1 µM, first compound 0.316 µM"}, "[10]": {"conditions": "second compound 0.1 µM, first compound 1 µM"}, "[11]": {"conditions": "second compound 0.1 µM, first compound 3.16 µM"}, "[12]": {"conditions": "second compound 0.1 µM, first compound 10 µM"}, "[13]": {"conditions": "second compound 0.316 µM, first compound 0.0316 µM"}, "[14]": {"conditions": "second compound 0.316 µM, first compound 0.1 µM"}, "[15]": {"conditions": "second compound 0.316 µM, first compound 0.316 µM"}, "[16]": {"conditions": "second compound 0.316 µM, first compound 1 µM"}, "[17]": {"conditions": "second compound 0.316 µM, first compound 3.16 µM"}, "[18]": {"conditions": "second compound 0.316 µM, first compound 10 µM"}, "[19]": {"conditions": "second compound 1 µM, first compound 0.0316 µM"}, "[20]": {"conditions": "second compound 1 µM, first compound 0.1 µM"}, "[21]": {"conditions": "second compound 1 µM, first compound 0.316 µM"}, "[22]": {"conditions": "second compound 1 µM, first compound 1 µM"}, "[23]": {"conditions": "second compound 1 µM, first compound 3.16 µM"}, "[24]": {"conditions": "second compound 1 µM, first compound 10 µM"}, "[25]": {"conditions": "second compound 3.16 µM, first compound 0.0316 µM"}, "[26]": {"conditions": "second compound 3.16 µM, first compound 0.1 µM"}, "[27]": {"conditions": "second compound 3.16 µM, first compound 0.316 µM"}, "[28]": {"conditions": "second compound 3.16 µM, first compound 1 µM"}, "[29]": {"conditions": "second compound 3.16 µM, first compound 3.16 µM"}, "[30]": {"conditions": "second compound 3.16 µM, first compound 10 µM"}, "[31]": {"conditions": "second compound 10 µM, first compound 0.0316 µM"}, "[32]": {"conditions": "second compound 10 µM, first compound 0.1 µM"}, "[33]": {"conditions": "second compound 10 µM, first compound 0.316 µM"}, "[34]": {"conditions": "second compound 10 µM, first compound 1 µM"}, "[35]": {"conditions": "second compound 10 µM, first compound 3.16 µM"}, "[36]": {"conditions": "second compound 10 µM, first compound 10 µM"}},
  "data": [
    {"smiles": "C=CCn1c(=O)c2cnc(Nc3ccc(N4CCN(C)CC4)cc3)nc2n1-c1cccc(C(C)(C)O)n1", "note": "+ Cc1cnc(CNC(=O)c2c(=O)c3ccc(N4CCCN(C)CC4)nc3n3c2sc2ccccc23)cn1", "values": [
      {"measurement": "IC50", "setting": "second compound 0.0316 µM", "value": 0.236, "unit": "µM"},
      {"measurement": "IC50", "setting": "second compound 0.1 µM", "value": "< 0.0316", "unit": "µM"},
      {"measurement": "IC50", "setting": "second compound 0.316 µM", "value": "< 0.0316", "unit": "µM"},
      {"measurement": "IC50", "setting": "second compound 1 µM", "value": "< 0.0316", "unit": "µM"},
      {"measurement": "IC50", "setting": "second compound 3.16 µM", "value": "< 0.0316", "unit": "µM"},
      {"measurement": "IC50", "setting": "second compound 10 µM", "value": "< 0.0316", "unit": "µM"},
      {"measurement": "viability, T/C", "setting": "[1]", "value": 105, "unit": "%"},
      {"measurement": "viability, T/C", "setting": "[2]", "value": 90, "unit": "%"},
      {"measurement": "viability, T/C", "setting": "[3]", "value": 36.5, "unit": "%"},
      {"measurement": "viability, T/C", "setting": "[4]", "value": 4.74, "unit": "%"},
      {"measurement": "viability, T/C", "setting": "[5]", "value": 1.95, "unit": "%"},
      {"measurement": "viability, T/C", "setting": "[6]", "value": 1.13, "unit": "%"},
      {"measurement": "viability, T/C", "setting": "[7]", "value": 29.4, "unit": "%"},
      {"measurement": "viability, T/C", "setting": "[8]", "value": 15.7, "unit": "%"},
      {"measurement": "viability, T/C", "setting": "[9]", "value": 8.35, "unit": "%"},
      {"measurement": "viability, T/C", "setting": "[10]", "value": 3.91, "unit": "%"},
      {"measurement": "viability, T/C", "setting": "[11]", "value": 2.06, "unit": "%"},
      {"measurement": "viability, T/C", "setting": "[12]", "value": 1.35, "unit": "%"},
      {"measurement": "viability, T/C", "setting": "[13]", "value": 6.91, "unit": "%"},
      {"measurement": "viability, T/C", "setting": "[14]", "value": 6.09, "unit": "%"},
      {"measurement": "viability, T/C", "setting": "[15]", "value": 5.08, "unit": "%"},
      {"measurement": "viability, T/C", "setting": "[16]", "value": 4.04, "unit": "%"},
      {"measurement": "viability, T/C", "setting": "[17]", "value": 2.11, "unit": "%"},
      {"measurement": "viability, T/C", "setting": "[18]", "value": 1.81, "unit": "%"},
      {"measurement": "viability, T/C", "setting": "[19]", "value": 4.63, "unit": "%"},
      {"measurement": "viability, T/C", "setting": "[20]", "value": 4.25, "unit": "%"},
      {"measurement": "viability, T/C", "setting": "[21]", "value": 3.87, "unit": "%"},
      {"measurement": "viability, T/C", "setting": "[22]", "value": 2.82, "unit": "%"},
      {"measurement": "viability, T/C", "setting": "[23]", "value": 1.24, "unit": "%"},
      {"measurement": "viability, T/C", "setting": "[24]", "value": 1.48, "unit": "%"},
      {"measurement": "viability, T/C", "setting": "[25]", "value": 2.9, "unit": "%"},
      {"measurement": "viability, T/C", "setting": "[26]", "value": 2.75, "unit": "%"},
      {"measurement": "viability, T/C", "setting": "[27]", "value": 2.77, "unit": "%"},
      {"measurement": "viability, T/C", "setting": "[28]", "value": 1.24, "unit": "%"},
      {"measurement": "viability, T/C", "setting": "[29]", "value": 0.09, "unit": "%"},
      {"measurement": "viability, T/C", "setting": "[30]", "value": 0.38, "unit": "%"},
      {"measurement": "viability, T/C", "setting": "[31]", "value": 0.06, "unit": "%"},
      {"measurement": "viability, T/C", "setting": "[32]", "value": 0.11, "unit": "%"},
      {"measurement": "viability, T/C", "setting": "[33]", "value": 0.12, "unit": "%"},
      {"measurement": "viability, T/C", "setting": "[34]", "value": 0.28, "unit": "%"},
      {"measurement": "viability, T/C", "setting": "[35]", "value": 0.46, "unit": "%"},
      {"measurement": "viability, T/C", "setting": "[36]", "value": 0.13, "unit": "%"}
    ]},
    {"smiles": "CC(C)(O)C1CCC(Nc2ccc3ncc(-c4cccc(C(F)(F)F)c4)n3n2)CC1", "note": "(centres undefined) + Cc1cnc(CNC(=O)c2c(=O)c3ccc(N4CCCN(C)CC4)nc3n3c2sc2ccccc23)cn1", "values": [
      {"measurement": "IC50", "setting": "second compound 0.0316 µM", "value": 2.06, "unit": "µM"},
      {"measurement": "IC50", "setting": "second compound 0.1 µM", "value": "< 0.0316", "unit": "µM"},
      {"measurement": "IC50", "setting": "second compound 0.316 µM", "value": "< 0.0316", "unit": "µM"},
      {"measurement": "IC50", "setting": "second compound 1 µM", "value": "< 0.0316", "unit": "µM"},
      {"measurement": "IC50", "setting": "second compound 3.16 µM", "value": "< 0.0316", "unit": "µM"},
      {"measurement": "IC50", "setting": "second compound 10 µM", "value": "< 0.0316", "unit": "µM"},
      {"measurement": "viability, T/C", "setting": "[1]", "value": 103, "unit": "%"},
      {"measurement": "viability, T/C", "setting": "[2]", "value": 105, "unit": "%"},
      {"measurement": "viability, T/C", "setting": "[3]", "value": 108, "unit": "%"},
      {"measurement": "viability, T/C", "setting": "[4]", "value": 97.3, "unit": "%"},
      {"measurement": "viability, T/C", "setting": "[5]", "value": 22, "unit": "%"},
      {"measurement": "viability, T/C", "setting": "[6]", "value": 16.9, "unit": "%"},
      {"measurement": "viability, T/C", "setting": "[7]", "value": 32, "unit": "%"},
      {"measurement": "viability, T/C", "setting": "[8]", "value": 29.9, "unit": "%"},
      {"measurement": "viability, T/C", "setting": "[9]", "value": 35.4, "unit": "%"},
      {"measurement": "viability, T/C", "setting": "[10]", "value": 26, "unit": "%"},
      {"measurement": "viability, T/C", "setting": "[11]", "value": 5.94, "unit": "%"},
      {"measurement": "viability, T/C", "setting": "[12]", "value": 7.03, "unit": "%"},
      {"measurement": "viability, T/C", "setting": "[13]", "value": 8.94, "unit": "%"},
      {"measurement": "viability, T/C", "setting": "[14]", "value": 10.5, "unit": "%"},
      {"measurement": "viability, T/C", "setting": "[15]", "value": 9.21, "unit": "%"},
      {"measurement": "viability, T/C", "setting": "[16]", "value": 9.55, "unit": "%"},
      {"measurement": "viability, T/C", "setting": "[17]", "value": 3.64, "unit": "%"},
      {"measurement": "viability, T/C", "setting": "[18]", "value": 2.73, "unit": "%"},
      {"measurement": "viability, T/C", "setting": "[19]", "value": 6.09, "unit": "%"},
      {"measurement": "viability, T/C", "setting": "[20]", "value": 5.79, "unit": "%"},
      {"measurement": "viability, T/C", "setting": "[21]", "value": 5.01, "unit": "%"},
      {"measurement": "viability, T/C", "setting": "[22]", "value": 4.88, "unit": "%"},
      {"measurement": "viability, T/C", "setting": "[23]", "value": 0.44, "unit": "%"},
      {"measurement": "viability, T/C", "setting": "[24]", "value": 0.4, "unit": "%"},
      {"measurement": "viability, T/C", "setting": "[25]", "value": 3.22, "unit": "%"},
      {"measurement": "viability, T/C", "setting": "[26]", "value": 4.22, "unit": "%"},
      {"measurement": "viability, T/C", "setting": "[27]", "value": 3.14, "unit": "%"},
      {"measurement": "viability, T/C", "setting": "[28]", "value": 0.95, "unit": "%"},
      {"measurement": "viability, T/C", "setting": "[29]", "value": 0.08, "unit": "%"},
      {"measurement": "viability, T/C", "setting": "[30]", "value": 0.08, "unit": "%"},
      {"measurement": "viability, T/C", "setting": "[31]", "value": 0.04, "unit": "%"},
      {"measurement": "viability, T/C", "setting": "[32]", "value": 0.09, "unit": "%"},
      {"measurement": "viability, T/C", "setting": "[33]", "value": 0.14, "unit": "%"},
      {"measurement": "viability, T/C", "setting": "[34]", "value": 0.13, "unit": "%"},
      {"measurement": "viability, T/C", "setting": "[35]", "value": 0.14, "unit": "%"},
      {"measurement": "viability, T/C", "setting": "[36]", "value": 0.14, "unit": "%"}
    ]}
  ]
}
